Reference: publication PMC7248105, “Photoinduced monooxygenation involving NAD(P)H-FAD sequential single-electron transfer” (Nature Communications, 2020)

Experiments:
PqsL [1] = target: T1, PqsL (Pseudomonas aeruginosa, UniProt Q9HWJ1); assay: X-ray crystal structure with FAD and 2-ABA; KD by fluorescence spectroscopy; format: binding
T1 construct: final models contain residues 3–370

PqsL [2] = target: T1, PqsL; assay: FAD fluorescence polarization; X-ray crystal structure; format: binding
PqsL-Q = target: T2, PqsL-Q (Pseudomonas aeruginosa, UniProt Q9HWJ1, C105G/G45R/I43R/R41Y); assay: as above; format: binding
T2 construct: final models contain residues 3–370
T2 sequence (Q9HWJ1 1-398 R41Y/I43R/G45R/C105G): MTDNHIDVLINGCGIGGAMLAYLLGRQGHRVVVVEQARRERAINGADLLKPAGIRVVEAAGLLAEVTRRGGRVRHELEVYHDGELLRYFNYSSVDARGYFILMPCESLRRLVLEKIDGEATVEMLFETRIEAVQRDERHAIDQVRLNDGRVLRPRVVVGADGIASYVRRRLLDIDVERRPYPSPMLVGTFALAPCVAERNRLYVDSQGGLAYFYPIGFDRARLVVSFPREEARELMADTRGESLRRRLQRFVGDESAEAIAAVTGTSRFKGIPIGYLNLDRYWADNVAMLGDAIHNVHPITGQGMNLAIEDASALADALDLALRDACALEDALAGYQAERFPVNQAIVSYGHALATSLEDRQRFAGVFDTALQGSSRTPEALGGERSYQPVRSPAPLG

PqsL [3] = target: T3, PqsL (Pseudomonas aeruginosa, UniProt Q9HWJ1, P273A); assay: FAD binding affinity (fluorescence spectroscopy)
T3 sequence (Q9HWJ1 1-398 P273A): T2 sequence (Q9HWJ1 1-398 R41Y/I43R/G45R/C105G)

[4] = test system: NC(=O)C1=CN([C@@H]2O[C@H](COP(=O)(O)OP(=O)(O)OC[C@H]3O[C@@H](n4cnc5c(N)ncnc54)[C@H](OP(=O)(O)O)[C@@H]3O)[C@@H](O)[C@H]2O)C=CC1; assay: purified protein; settings: FAD
[5] = test system: NC(=O)C1=CN([C@@H]2O[C@H](COP(=O)(O)OP(=O)(O)OC[C@H]3O[C@@H](n4cnc5c(N)ncnc54)[C@H](O)[C@@H]3O)[C@@H](O)[C@H]2O)C=CC1; assay: purified protein; settings: FAD
[6] = target: the molecule itself; assay: SEC; analytical gel filtration, Superdex 200 Increase 10/300 GL, 20 mM tris-HCl pH 8.5 without NaCl, 12 °C, calibrated with Bio-Rad standard

## Nc1ccccc1C(=O)CC(=O)O [2-ABA, 2-aminobenzoylacetate]
PqsL [1]
  Kd: 38.4 ± 3.98 µM

## Cc1cc2nc3c(=O)[nH]c(=O)nc-3n(C[C@H](O)[C@H](O)[C@H](O)COP(=O)(O)OP(=O)(O)OC[C@H]3O[C@@H](n4cnc5c(N)ncnc54)[C@H](O)[C@@H]3O)c2cc1C [FAD]
PqsL [2]
  Kd: 0.25 ± 0.0298 µM
PqsL-Q
  Kd: 0.0375 ± 0.0067 µM
PqsL [3]
  Kd: 64 µM

## PqsL (Pseudomonas aeruginosa PAO1)
[4]
  Km: 157.5 ± 18.9 µM
[5]
  Km: 310.9 ± 21.6 µM

B1: PqsL (flavoprotein monooxygenase, wild type) (enzyme, Pseudomonas aeruginosa)
chain: T2 sequence (Q9HWJ1 1-398 R41Y/I43R/G45R/C105G)
notes: PqsL, FAD-dependent monooxygenase of alkyl quinolone N-oxide biosynthesis, Pseudomonas aeruginosa; the crystal models hold residues 3-370; One protomer is written; also called Wild-type PqsL; FPMO PqsL; source: E. coli LMG194 (pHERD30T), purified (Ni-NTA, Resource Q anion exchange)
[6]
  stoichiometry N: 2
